Consider 28 molecules from patent publication US8134015B2, “Compound inhibiting in vivo phosphorous transport and medicine containing the same” (Kyowa Hakko Kirin Co., Ltd., priority 2003, dated 2012).

One may read the IC50 as the concentration that inhibits the measured activity by half. Usually inhibition stands for the drop in the measured response relative to a control, in per cent. A low value points to a weak effect.

The target of one assay is T1, rat NaPi-2b (Rattus norvegicus, UniProt Q9JJ09).
T1 construct: expressed in transfected cells; host or cells: Xenopus oocytes injected with cRNA
T1 sequence (Q9JJ09 1-695): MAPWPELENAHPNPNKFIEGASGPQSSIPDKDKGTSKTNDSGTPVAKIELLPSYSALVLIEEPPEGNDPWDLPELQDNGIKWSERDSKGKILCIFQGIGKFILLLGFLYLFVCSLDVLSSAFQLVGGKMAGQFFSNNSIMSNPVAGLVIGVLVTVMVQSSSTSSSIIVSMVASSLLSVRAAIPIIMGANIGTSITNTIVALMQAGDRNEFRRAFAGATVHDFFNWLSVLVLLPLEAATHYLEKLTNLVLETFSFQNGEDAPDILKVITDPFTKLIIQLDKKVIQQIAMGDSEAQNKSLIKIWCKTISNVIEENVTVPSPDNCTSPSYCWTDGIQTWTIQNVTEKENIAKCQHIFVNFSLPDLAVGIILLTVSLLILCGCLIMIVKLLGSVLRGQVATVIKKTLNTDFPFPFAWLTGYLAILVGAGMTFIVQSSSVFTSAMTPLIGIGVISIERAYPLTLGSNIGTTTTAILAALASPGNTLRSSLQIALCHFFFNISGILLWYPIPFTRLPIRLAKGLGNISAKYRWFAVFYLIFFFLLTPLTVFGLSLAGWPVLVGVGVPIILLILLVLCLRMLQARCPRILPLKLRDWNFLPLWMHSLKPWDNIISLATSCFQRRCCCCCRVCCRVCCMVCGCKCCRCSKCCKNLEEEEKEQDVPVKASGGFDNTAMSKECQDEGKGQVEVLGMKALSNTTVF
The assay is described as follows: Sodium-dependent phosphate uptake of Xenopus oocytes which expressed NaPi-2b (32P). It counts as cell-based. Particulars: Xenopus oocytes expressing rat NaPi-2b, 32P radioactive phosphorus; read-out: IC50 (phosphate uptake inhibitory activity). The method in brief:
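Inhibition at 300 μM and 100 μM was read off one inhibition curve of 32P phosphate uptake. Uptake was measured in Xenopus oocytes cultured 2 days after injection of cRNA for cloned rat NaPi-2b.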
For the molecule `O=C(Nc1ccc(Br)cc1C(=O)N/N=C/c1cccc(F)c1)c1ccc(CSc2ccncc2)cc1` [Compound 255, N-[4-Bromo-2-(3-fluoro-benzylidene-hydrazinocarbonyl)-phenyl]-4-(pyridin-4-ylsulfanylmethyl)-benzamide], the IC50 worked out at 3.54 µM.
For `O=C(Nc1ccc(Br)cc1C(=O)N/N=C/c1cccc(F)c1)c1ccc(CN2CCC(N3CCCCC3)CC2)cc1` [Compound 312, 4-[1,4′]Bipiperidinyl-1′-ylmethyl-N-[4-bromo-2-(3-fluoro-benzylidene-hydrazinocarbonyl)-phenyl]-benzamide], the IC50 stood at 3.31 µM.
Consider `O=C(Nc1ccc(Cl)cc1C(=O)N/N=C/c1ccc(Cl)c(C(F)(F)F)c1)c1cccc(CSc2nc[nH]n2)c1` [Compound 393, N-[4-Chloro-2-(4-chloro-3-trifluoromethyl-benzylidene-hydrazinocarbonyl)-phenyl]-3-(1H-[1,2,4]triazol-3-ylsulfanylmethyl)-benzamide], for which the IC50 came out at 0.52 µM.
As to `Cc1ccc(/C=N/NC(=O)c2cscc2NC(=O)c2cccc(CN(CC(C)O)CC(C)O)c2)cc1C` (stereo not shown) [Compound 977, 3-{[Bis-(2-hydroxy-propyl)-amino]-methyl}-N-[4-(3,4-dimethyl-benzylidene-hydrazinocarbonyl)-thiophen-3-yl]-benzamide], the IC50 was found to be 10.1 µM.
With `Cc1cc(C(=O)Nc2ccccc2C(=O)N/N=C/c2ccc(F)cc2)c(C)o1` [Compound 515, 2,5-Dimethyl-furan-3-carboxylic acid [2-(4-fluoro-benzylidene-hydrazinocarbonyl)-phenyl]-amide], the IC50 amounted to 1.9 µM.
Take `CCN1CC(NCc2ccc(C(=O)Nc3ccc(Br)cc3C(=O)N/N=C/c3ccc(Cl)c(C(F)(F)F)c3)cc2)CN1CC` [Compound 754, N-[4-Bromo-2-(4-chloro-3-trifluoromethyl-benzylidene-hydrazinocarbonyl)-phenyl]-4-[(1,2-diethyl-pyrazolidin-4-ylamino)-methyl]-benzamide]: the IC50 is under 3 µM.
In the case of `COc1ccc(/C=N/NC(=O)c2cc(N3CCC(C)CC3)ccc2NC(=O)c2cccc(CSCCO)c2)cc1` [Compound 1071, 3-(2-Hydroxy-ethylsulfanylmethyl)-N-[2-(4-methoxy-benzylidene-hydrazinocarbonyl)-4-(4-methyl-piperidin-1-yl)-phenyl]-benzamide], the IC50 was under 1 µM.
Take `COc1ccc(NC(=O)c2ccc(OC)c(OC)c2)c(C(=O)N/N=C/c2ccc(C)cc2)c1` [Compound 144, 3,4-Dimethoxy-N-[4-methoxy-2-(4-methyl-benzylidene-hydrazinocarbonyl)-phenyl]-benzamide]: the IC50 was found to be 5.02 µM.
`Cc1ccc(/C=N/NC(=O)c2cc(Br)ccc2NC(=O)c2ccc(CNCCCN(CCO)CCO)cc2)cc1C` [Compound 300, 4-({3-[Bis-(2-hydroxy-ethyl)-amino]-propylamino}-methyl)-N-[4-bromo-2-(3,4-dimethyl-benzylidene-hydrazinocarbonyl)-phenyl]-benzamide]: the IC50 was 1.92 µM.
In the case of `Cc1ccc(/C=N/NC(=O)c2cc(Br)ccc2NC(=O)c2ccc(CN3CCC(O)CC3)cc2)cc1` [Compound 325, N-[4-Bromo-2-(4-methyl-benzylidene-hydrazinocarbonyl)-phenyl]-4-(4-hydroxy-piperidin-1-ylmethyl)-benzamide], the IC50 was determined as 2.56 µM.
As to `CCN(CC)CCN(C)Cc1cccc(C(=O)Nc2ccc(Cl)cc2C(=O)N/N=C/c2cccc(O)c2)c1` [Compound 387, N-[4-Chloro-2-(3-hydroxy-benzylidene-hydrazinocarbonyl)-phenyl]-3-{[(2-diethylamino-ethyl)-methyl-amino]-methyl}-benzamide], the IC50 amounted to 6.45 µM.
Turning to `CC(O)CN(Cc1cccc(C(=O)Nc2cscc2C(=O)N/N=C/c2cccc(F)c2)c1)CC(C)O` (stereo not shown) [Compound 974, 3-{[Bis-(2-hydroxy-propyl)-amino]-methyl}-N-[4-(3-fluoro-benzylidene-hydrazinocarbonyl)-thiophen-3-yl]-benzamide], the 50% inhibitory concentration (IC50) came to 12.6 µM.
As for `O=C(Nc1ccccc1C(=O)N/N=C/c1cccc(O)c1)c1cccc(F)c1` [Compound 85, 3-Fluoro-N-[2-(3-hydroxy-benzylidene-hydrazinocarbonyl)-phenyl]-benzamide], the IC50 worked out at 2 µM.
With `Cc1ccc(/C=N/NC(=O)c2cc(N3CCCC3=O)ccc2NC(=O)c2cccc(CN(CC(C)O)CC(C)O)c2)cc1C` (stereo not shown) [Compound 944, 3-{[Bis-(2-hydroxy-propyl)-amino]-methyl}-N-[2-(3,4-dimethyl-benzylidene-hydrazinocarbonyl)-4-(2-oxo-pyrrolidin-1-yl)-phenyl]-benzamide], the IC50 stood at 12 µM.
Take `Cc1ccc(/C=N/NC(=O)c2cc(Br)ccc2NC(=O)c2cccnc2)cc1` [Compound 175, N-[4-Bromo-2-(4-methyl-benzylidene-hydrazinocarbonyl)-phenyl]-nicotinamide]: the IC50 amounted to 3.57 µM.
Take `O=C(Nc1ccccc1C(=O)N/N=C/c1ccc(F)cc1)c1ccccc1F` [Compound 38, 2-Fluoro-N-[2-(4-fluoro-benzylidene-hydrazinocarbonyl)-phenyl]-benzamide]: the IC50 was determined as 5.64 µM.
Consider `COc1ccc(/C=N/NC(=O)c2cc(N3CCCCC3)ccc2NC(=O)c2cccc(CSCC(=O)O)c2)cc1` [Compound 892, {3-[2-(4-Methoxy-benzylidene-hydrazinocarbonyl)-4-piperidin-1-yl-phenylcarbamoyl]-benzylsulfanyl}-acetic acid], for which the IC50 stood at 14.8 µM.
As for `CCCN(CCC)c1ccc(NC(=O)c2cccc(CN(C)CCN(CC)CC)c2)c(C(=O)N/N=C/c2ccc(Cl)c(C(F)(F)F)c2)c1` [Compound 911, N-[2-(4-Chloro-3-trifluoromethyl-benzylidene-hydrazinocarbonyl)-4-dipropylamino-phenyl]-3-{[(2-diethylamino-ethyl)-methyl-amino]-methyl}-benzamide], the IC50 is under 1 µM.
Regarding `CCN(CC)CCN(C)Cc1cccc(C(=O)Nc2ccc(Cl)cc2C(=O)N/N=C/c2ccc(O)cc2)c1` [Compound 388, N-[4-Chloro-2-(4-hydroxy-benzylidene-hydrazinocarbonyl)-phenyl]-3-{[(2-diethylamino-ethyl)-methyl-amino]-methyl}-benzamide], the IC50 was determined as 19.7 µM.
In the case of `Cc1csc(NC(=O)c2cccc(CSCCCO)c2)c1C(=O)N/N=C/c1ccc(F)cc1` [Compound 559, N-[3-(4-Fluoro-benzylidene-hydrazinocarbonyl)-4-methyl-thiophen-2-yl]-3-(3-hydroxy-propylsulfanylmethyl)-benzamide], the IC50 worked out at 1.26 µM.
With `COc1ccc(C(=O)Nc2ccccc2C(=O)N/N=C/c2cccc([N+](=O)[O-])c2)cc1OC` [Compound 103, 3,4-Dimethoxy-N-[2-(3-nitro-benzylidene-hydrazinocarbonyl)-phenyl]-benzamide], the IC50 amounted to 5.73 µM.
As for `COc1ccc(/C=N/NC(=O)c2cc3ccccc3cc2NC(=O)c2cccc(CN(CC(C)O)CC(C)O)c2)cc1` (stereo not shown) [Compound 963, 3-{[Bis-(2-hydroxy-propyl)-amino]-methyl}-N-[3-(4-methoxy-benzylidene-hydrazinocarbonyl)-naphthalen-2-yl]-benzamide], the IC50 is under 1 µM.
In the case of `COc1ccccc1/C=N/NC(=O)c1ccccc1NC(=O)c1ccc(OC)c(OC)c1` [Compound 4, 3,4-Dimethoxy-N-[2-(2-methoxy-benzylidene-hydrazinocarbonyl)-phenyl]-benzamide], the IC50 is 79.9 µM.
Consider `CCOc1cc(/C=N/NC(=O)c2ccccc2NC(=O)c2ccc(OC)c(OC)c2)ccc1O` [Compound 37, N-[2-(3-Ethoxy-4-hydroxy-benzylidene-hydrazinocarbonyl)-phenyl]-3,4-dimethoxy-benzamide], for which the IC50 came out at 13.5 µM.

The same assay, now with this note: phosphate uptake, oocytes expressing rat NaPi-2b; 300 μM, determined from inhibition curve.
`O=C(Nc1ccccc1C(=O)N/N=C/C=C/c1ccccc1)c1ccccc1` [Compound 235, N-[2-(3-Phenyl-allylidene-hydrazinocarbonyl)-phenyl]-benzamide]: testing at 300 µM gave an inhibition of 47.9%.
Still for that read-out and setting: next, `Cc1ccc(/C=N/NC(=O)c2scc(C)c2NC(=O)c2cccc(CSc3nc[nH]n3)c2)cc1C` [Compound 523, N-[2-(3,4-Dimethyl-benzylidene-hydrazinocarbonyl)-4-methyl-thiophen-3-yl]-3-(1H-[1,2,4]triazol-3-ylsulfanylmethyl)-benzamide]: 50.1%; `CCN(CC)Cc1cccc(C(=O)Nc2ccc(Cl)cc2C(=O)NOCc2ccccc2)c1` [Compound 1077]: 40.2%.
As for `CCN(CC)CCN(C)Cc1cccc(C(=O)Nc2sccc2C(=O)N/N=C/c2ccc(C)cc2)c1` [Compound 665, 3-{[(2-Diethylamino-ethyl)-methyl-amino]-methyl}-N-[3-(4-methyl-benzylidene-hydrazinocarbonyl)-thiophen-2-yl]-benzamide], testing at 300 µM gave an inhibition of 82.3%.
